Reference: patent US11478445B2, “Method for treating acute myeloid leukemia” (Bionomics Limited, priority 2017, dated 2022)
Entries after “also recorded” stand apart in the source; their conditions may differ.

Legend:
AML cell lines = assay: Cytotoxicity (CellTox Green) and viability/proliferation (CellTiter-Blue) assays; type: cell-based
Method: The cell lines were plated in 96-well plates (black with clear flat bottom, Costar, 3603) at 2×10^4 cells/well in 50 uL of respective media, containing 0.1% DMSO and CellTox Green reagent (Promega, G8742) at a final dilution of 1/500. Cells were plated in triplicate wells for each dose being tested. EX 1 was reconstituted immediately prior to use at 10 mM in DMSO. The drug was prepared 2× concentrated in media containing 0.1% DMSO and 50 uL added to respective wells. Fluorescence (485-500 nmEx/520-530 nmEm) was measured at 24 h and 48 h with a FLOUstar OPTIMA plate reader (BMG Labtech). After the cytotoxicity measurement at 48 h, 20 μL of CellTiter-Blue reagent (Promega, G8080) was added to each well and the plate incubated for 1 h at 37° C. before fluorescence (560Ex/590Em) was measured with a FLOUstar OPTIMA plate reader (BMG Labtech).
The first experiment was performed with HL60 and MOLM13 cell lines. Cells were expanded and when numbers were adequate (and viability higher than 90%) they were plated in 96-well plates at 2×10^4 cells/well in 50 uL of their respective media, containing 0.1% DMSO and CellTox Green reagent. Doses tested ranged from 1 μM followed by serial 1/10 dilutions until 10^−5 nM EX 1, or vehicle only. Plates were cultured and fluorescence (indicating cytotoxicity) was measured at 24 h and 48 h. After the cytotoxicity was read at 48 h, CellTiter-Blue reagent was added to each well. The readout of this assay is based on the metabolic activity of cells and it is used as surrogate marker for proliferation and/or cell viability.
The next experiment was performed with the cell lines ME1, OCI-AML3, MV4; 11 and KG1 following the same protocol as above. From the results from the previous experiment it was observed that the non-linear curve fit was very steep between 1 nM and 0.1 nM (FIGS. 1A and B); thus, for this and the subsequent experiments the drug doses were adjusted to: […], 10 nM, 1 nM, 0.75 nM, 0.5 nM, 0.25 nM, 0.1 nM, 0.01 nM and 0.001 nM. […] Cytotoxicity and proliferation (metabolic assay) were measured as above. […]

P-JNK^Thr183/Tyr185 = assay: Western blot for P-JNK in AML cell lines; type: cell-based; settings: all cell lines, 8 h, 10 nM and 100 nM
Method: Cells were harvested (4×10^6 for cell lines and 7×10^6 for L-AMLs) and washed 3 times with cold PBS (centrifuged at 4° C.). Lysis buffer was prepared with NP40 Cell Lysis Buffer (ThermoFisher Scientific), cOmplete protease inhibitor (Roche, 046993116001), PhosStop (Roche, 04906837001) and Pefablock (Roche, 11585916001) at the recommended concentrations. After the washes, cells were resuspended in 50 μL of lysis buffer, vortexed and incubated on ice for 30 min. Samples were vortexed every 10 min. After 30 min incubation, samples were centrifuged at 14,000 g at 4° C. for 10 min and supernatants were transferred to tubes. Protein was quantified using the DC Protein Assay kit (BioRad) per manufacturer's protocol. 50 μg of cell lines lysate or 20 μg of L-AML6 lysate were loaded for SDS-PAGE. Protein was transferred from the gels into PVDF membranes using a semi dry transfer apparatus (BioRad). […]
Once it was determined that this group of AML cell lines are highly sensitive to EX 1, the mechanism underlying this response was investigated. […]
Therefore, cells were treated with a range of doses of EX 1 for 8 h and 24 h, as described above, before protein extraction was performed. […] Noxa was readily detected in control lysate prepared from HEK293 cells.

## COc1cc(C(=O)c2c(C)oc3c(O)c(OC)ccc23)cc(OC)c1OC [EX 1, 2-Methyl-7-hydroxy-3-(3,4,5-trimethoxybenzoyl)-6-methoxybenzofuran]
AML cell lines; less sensitive cell lines ME1, OCI-AML3 and KG1
  cytotoxicity and CellTiter response: showed a lower cytotoxicity response
AML cell lines; more sensitive cell lines HL60, MOLM13 and MV4;11
  cytotoxicity and inhibitory proliferation response: reached the highest cytotoxicity and showed the largest inhibitory proliferation response
AML cell lines; range over six AML cell lines (MV4;11, MOLM13, HL60, KG1, ME1, OCI-AML3), 48 h, FIGS. 1A and B, read-out: IC50 doses (cytotoxicity and viability)
  IC50: 200 to 1300 pM
P-JNK^Thr183/Tyr185
  P-JNK induction: strongly induced in all cell lines; also recorded: induced in all cell lines
